In patent publication US11191288B2, “Use of a feed composition for reducing methane emission in ruminants, and/or to improve ruminant performance” (DSM IP ASSETS B.V., priority 2017, dated 2021):

Tests used:
[1] = tested on: rumen liquor; assay: In vitro test for methane production (modified Hohenheim Forage value Test, HFT); format: cell-based; conditions: for Total methane: 8 h, 39° C., artificial TMR, average of three experiments
Method: In Vitro Test for Methane Production:
(§1) A modified version of the “Hohenheim Forage value Test (HFT)” was used for testing the effect of specific compounds on the rumen functions mimicked by this in-vitro system.
(§2) Feed is gadded into a syringe with a composition of rumen liquor and an appropriate mixture of buffers. The solution is incubated at 39° C. After 8 hours the quantity (and composition) of gas phase produced is measured and put into a formula for conversion.
(§3) The feed stuff is sieved to 1 mm—usually TMR (44% concentrate, 6% hay, 37% maize silage and 13% grass silage)—and weighed exactly into 64 syringes. 4 of these syringes are the substrate controls, which display the gas production without the effect of the tested compounds. […] When needed, 4 syringes contain a carrier control (if the test compounds need a carrier). The remaining syringes contain the test substances, by groups of 4 syringes.
(§4) Preparation of the Medium Solution: • The components are mixed in a Woulff bottle in following order: • 711 ml water • 0.18 ml trace element solution • 355.5 ml buffer solution • 355.5 ml mass element solution • The completed solution is warmed up to 39° C. followed by the addition of 1.83 ml sodium salt solution and the addition of reduction solution at 36° C. The rumen liquor is added, when the indicator turns colourless.
(§5) 750 ml of rumen liquor are added to approximately 1,400 ml of medium solution under continued agitation and CO2-gassing.
(§6) The diluted rumen fluid (24 ml) is added to the glass syringe. The syringes are then incubated for 8 hours at 39° C. under gentle agitation. After 8 hours, the volume of gas produced is measured, and the percentage of methane in the gas phase is determined by gas chromatography.
(§7) The food fermented was artificial TMR (44% concentrate, 6% hay, 37% maize silage and 13% grass silage). Lauric acid from Sigma Aldrich was used at a concentration of 1000 μM. 3-Nitrooxy-propanol (3-NOP) was used at two different concentrations, 2.5 μM and 5 μM.
(§8) Ace.=acetate; Prop.=propionate

[2] = tested on: rumen liquor; assay: Effect on volatile fatty acids (VFA) profile, acetate/propionate ratio (modified Hohenheim Forage value Test, HFT); format: cell-based; conditions: for Ace./Prop.: 8 h, 39° C., artificial TMR, average of three experiments
Method: as §1, §2, §3, §4, §5
Filling the Syringes, Incubation and Determining Gas Volumes and VFA Values:
as §6, §7, §8

SMILES: CCCCCCCCCCCC(=O)O [Lauric acid, reference compound]
- Reduction vs. control (methane) ([1]; Lauric acid 1000 μM): 0.012 mmol over 8 h
- Total methane ([1]; Lauric acid 1000 μM): 0.255 mmol over 8 h
- Reduction vs. control (Ace./Prop.) ([2]; Lauric acid 1000 μM): 0.28 Mole Ratio
- Ace./Prop. ([2]; Lauric acid 1000 μM): 1.98 Mole Ratio

SMILES: O=[N+]([O-])OCCCO [3-NOP, 3-Nitrooxypropanol]
- Reduction vs. control (methane) ([1]; 3-NOP 2.5 μM): 0.023 mmol over 8 h
- Total methane ([1]; 3-NOP 2.5 μM): 0.244 mmol over 8 h
- Reduction vs. control (methane) ([1]; 3-NOP 5 μM): 0.17 mmol over 8 h
- Total methane ([1]; 3-NOP 5 μM): 0.097 mmol over 8 h
- Reduction vs. control (Ace./Prop.) ([2]; 3-NOP 2.5 μM): 0.17 Mole Ratio
- Ace./Prop. ([2]; 3-NOP 2.5 μM): 2.09 Mole Ratio
- Reduction vs. control (Ace./Prop.) ([2]; 3-NOP 5 μM): 0.63 Mole Ratio
- Ace./Prop. ([2]; 3-NOP 5 μM): 1.63 Mole Ratio
